Results as given in patent publication US20210069295A1, “GALECTINS CONTROL MTOR IN RESPONSE TO ENDOMEMBRANE DAMAGE AND PROVIDE A MECHANISM AND TARGET FOR THE TREATMENT OF AUTOPHAGY-RELATED DISEASES” (STC. UNM, priority 2017, published 2021).
Peptide text beside a SMILES is read from it.

Legend:
mTOR = mTOR activity by immunoblotting in HeLa cells (wildtype and TSC2-deleted); assay type: cell-based; settings: 100 μM GPN 1 h
Procedure: (§1) (A) Analysis of mTOR activity in TSC2-deleted (TSC2−/−) and wildtype (TSC2WT) HeLa cells treated with 100 μM GPN in full medium (Full) or starved in EBSS for 1 h. mTOR activity was monitored by immunoblotting analysis of S6K1 (T389) phosphorylation (phosphorylated S6K (p-T389) relative to total S6K). Ctrl, control (untreated cells). (B) Co-immunoprecipitation analysis of changes in interactions between Ragulator and Rag GTPases following treatment with GPN. HEK293T cells stably expressing FLAG-metap2 (control) or FLAG-p14 were treated with 100 μM GPN in full medium for 1 h. Cell lysates were immunoprecipitated (IP) with anti-FLAG antibody and immunoblotted for endogenous RagA or RagC. […] (D) Analysis of mTOR activity in HEK293T cells or HEK293T cells stably expressing constitutively active RagB GTPase (RagBQ99L) treated with 100 μM GPN in full medium or starved in EBSS for 1 h. mTOR activity was monitored as in A. Data, means±SEM, (n=3), † not significant, **p<0.01, ANOVA. […] (F) Quantification by HC of overlaps between mTOR and LAMP2 (representative images shown in FIG. S2C) in HEK293T cells and HEK293T cells stably expressing constitutively active RagB GTPase (RagBQ99L) treated with 100 μM GPN in full medium for 1 h. Data, means±SEM, n≥3 independent experiments (500 primary objects counted per well; ≥5 wells/sample per each experiment); † p≥0.05, *p<0.05, ANOVA. […]

Ragulator-Rag complex = assay: Co-immunoprecipitation of Ragulator, Rag GTPases and mTOR/Raptor in HEK293T cells; assay type: cell-based; settings: 100 μM GPN 1 h
Procedure: as §1

NCC(=O)N[C@@H](Cc1ccccc1)C(=O)Nc1ccc2ccccc2c1 [GPN, glycyl-L-phenylalanine 2-naphththylamide] (HELM PEPTIDE1{G.F.[c1ccc2cc(N[*:1])ccc2c1]}$$$$V2.0)
mTOR activity in different cell lines (mTOR; HeLa cells, comparable to starvation): inhibited mTOR activity
mTOR activity in cells null for TSC2 (mTOR; TSC2-deleted HeLa cells): inhibited mTOR
interactions between Ragulator (p14 and p18) and RagA/RagC in co-IPs (Ragulator-Rag complex): enhanced interactions
mTOR and Raptor levels in complexes with RagB or RagA (Ragulator-Rag complex): diminished mTOR and Raptor levels
